Results: publication PMC6287826, “Regulation of histone deacetylase 3 by metal cations and 10-hydroxy-2E-decenoic acid: Possible epigenetic mechanisms of queen-worker bee differentiation” (PLoS ONE, 2018)

Biological target: T1, histone deacetylase 3 (HDAC3) (Homo sapiens, UniProt O15379)
T1 construct: full length human HDAC3 (NP_003874.2) with a C-terminal FLAG tag, in complex with human NCOR2 amino acids 395–489 with an N-terminal 6xHis tag; with NCOR2 (SMRT) amino acids 395–489
Assay: Fluor de Lys fluorescent deacetylase assay, fractional activity vs [10-HDA]
Type: biochemical

T1 sequence (O15379 whole entry, the tested form may be a part): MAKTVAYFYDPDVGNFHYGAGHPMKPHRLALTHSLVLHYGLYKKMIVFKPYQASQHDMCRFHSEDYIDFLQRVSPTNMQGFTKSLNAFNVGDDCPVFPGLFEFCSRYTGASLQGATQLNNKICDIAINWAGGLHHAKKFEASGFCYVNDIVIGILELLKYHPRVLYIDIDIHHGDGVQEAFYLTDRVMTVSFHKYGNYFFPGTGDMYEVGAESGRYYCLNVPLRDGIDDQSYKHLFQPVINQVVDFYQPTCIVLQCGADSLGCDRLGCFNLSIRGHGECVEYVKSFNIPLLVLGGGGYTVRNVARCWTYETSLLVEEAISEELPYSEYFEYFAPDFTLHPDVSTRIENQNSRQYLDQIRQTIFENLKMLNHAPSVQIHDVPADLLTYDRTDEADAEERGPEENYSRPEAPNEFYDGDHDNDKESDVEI
T1 sequence (Q9Y618 395-489 partner): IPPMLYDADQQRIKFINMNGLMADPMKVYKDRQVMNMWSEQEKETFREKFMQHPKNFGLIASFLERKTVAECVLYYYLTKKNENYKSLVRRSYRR

O=C(O)/C=C/CCCCCCCO [10-HDA, 10-hydroxy-2E-decenoic acid]
Ki: 5.32 mM
